Legend:
[1] = molecular target: Chk2 (Homo sapiens, UniProt O96017); settings: expressed and purified Chk2; cited from earlier work
[2] = system: prostate carcinoma PC3 cells; test: Survivin expression after DNA damage, Western blotting; assay type: cell-based, human; settings: analyzed after 12 hours
Procedure: (§1) Tumor cell types were exposed to ionizing radiation at doses ranging between 5-10 Gray (Gy) using a ^137Cs source (Gammacell 40), or, alternatively, treated with adriamycin (0-100 nM, Sigma). Cells were harvested after 2-48 h, and analyzed by Western blotting. Antibodies were used having affinities for; i) survivin (1:1000, Novus Biologicals); ii) Chk2 (1:500; Upstate Biotechnology); iii) cytochrome c (1:100; BD Biosciences-Pharmingen); iv) COX-IV (1:500; BD Biosciences-Clontech); v) caspase-3 (1:1000, Cell Signaling Technology); vi) cleaved caspase-3 (1:1000, Cell Signaling Technology); vii) cyclin B1 (1:1000, GNS1, Santa Cruz Biotechnology, Inc.); viii) XIAP (1:1000; Transduction Laboratories); xi) β-actin (1:5000, clone AC-15, A5441; Sigma-Aldrich); and xii) Thr^68-phosphorylated Chk2 (Cell Signaling Technology).

[3] = system: HCT116 clones #102 and #202; test: Xenograft tumor model, HCT116 clones conditionally expressing Chk2-DN; assay type: in vivo, mice
Procedure: All examples involving animals were approved by an Institutional Animal Care and Use Committee. […] Approximately 2.5×10^6 cells were injected into each hindlimb flank of 6-8 week old female immunocompromised CB17 SCID/beige mice (i.e., thereby generating 2 tumors/mouse). […] Tumor growth was monitored with a caliper according to the formula ½ [length (mm)]×[width (mm)]^2. At the end of the experiment, tumors were excised, and frozen sections from the various groups were stained with control IgG or a FITC-conjugated antibody to HA, and analyzed by fluorescence microscopy.

[4] = system: MCF-7 cells; test: Ionizing radiation-induced survivin expression, Western blotting; assay type: cell-based; settings: MCF-7 cells transfected
Procedure: as §1
For gene silencing by short interference RNA (siRNA), tumor cell types were transfected with control (VIII) or survivin-derived (S4) double stranded (ds) RNA oligonucleotides (50 nM) using oligofectamine (3 μl/well), as previously described. Beltrami et al., “Acute ablation of survivin uncovers p53-dependent mitotic checkpoint functions and control of mitochondrial apoptosis” J Biol Chem 279:2077-84 (2004). Alternatively, cells were transfected with control or SMART® pool siRNA oligonucleotides to Chk1 or Chk2 (Dharmacon) using oligofectamine. […]

[5] = system: HCT116 cells; test: Caspase activity and cell death by multiparametric flow cytometry after DNA damage; assay type: cell-based; settings: p53+/+ or p53-/- HCT116 cells, ionizing radiation
Procedure: For gene silencing by short interference RNA (siRNA), tumor cell types were transfected with control (VIII) or survivin-derived (S4) double stranded (ds) RNA oligonucleotides (50 nM) using oligofectamine (3 μl/well), as previously described. Beltrami et al., “Acute ablation of survivin uncovers p53-dependent mitotic checkpoint functions and control of mitochondrial apoptosis” J Biol Chem 279:2077-84 (2004). Alternatively, cells were transfected with control or SMART® pool siRNA oligonucleotides to Chk1 or Chk2 (Dharmacon) using oligofectamine. A replication-deficient adenovirus expressing Chk2-DN was constructed using the pAd-Easy® system, and used at a multiple of infection (m.o.i.) of 50.
Tumor cell types were treated with or without ionizing radiation, harvested after 24 h, and analyzed for changes in cell cycle distribution by propidium iodide staining and flow cytometry. Alternatively, cells were exposed to ionizing radiation, and analyzed after 24-48 h for propidium iodide staining (red channel) and active caspase-3 activity (CaspaTag®, Intergen®, green channel), by simultaneous multiparametric flow cytometry. Dohi et al., “Mitochondrial survivin inhibits apoptosis and promotes tumorigenesis” J Clin Invest 114:1117-1127 (2004).

[6] = system: HCT116 clones #101, #102; test: Conditional induction of apoptosis, propidium iodide staining and flow cytometry; assay type: cell-based; settings: doxycycline induction plus adriamycin, adriamycin-sensitive clones
Source text: Breast adenocarcinoma MCF-7, colon adenocarcinoma HCT116, or prostate adenocarcinoma PC3 cells were obtained from the American Type Culture Collection (ATCC, Manassas Va.), and maintained in culture as recommended by the supplier. Wild-type, p53^−/−, or Chk2^−/− HCT116 cells were kindly provided by Dr. B. Vogelstein (Johns Hopkins University, Baltimore, Md.). The rat insulinoma cell line INS-1 stably transfected with mitochondrially-targeted survivin fused to GFP was created as previously described. Dohi et al., “Mitochondrial survivin inhibits apoptosis and promotes tumorigenesis” J Clin Invest 114:1117-1127 (2004). Wild-type HCT116 cells were stably transfected to conditionally express a kinase-dead Asp^347 Asn^347 Chk2 dominant-negative (DN) cDNA under the control of a tetracycline (tet)-regulated promoter (tet-on system, Clontech), as described previously. Grossman et al., “Inhibition of melanoma tumor growth in vivo by survivin targeting” Proc. Natl. Acad. Sci. U.S.A. 98:635-640 (2001). Conditional induction of Chk2-DN was monitored after addition of 2 μg/ml doxycycline (dox).
[…] Alternatively, cells were exposed to ionizing radiation, and analyzed after 24-48 h for propidium iodide staining (red channel) and active caspase-3 activity (CaspaTag®, Intergen®, green channel), by simultaneous multiparametric flow cytometry. […]

[7] = system: HCT116 cells; test: Colony formation assay in soft agar; assay type: cell-based; settings: increasing doses of ionizing radiation
Procedure: Wild-type HCT116 cells were transduced with a replication deficient adenovirus encoding GFP, Chk2-DN, or Thr^34→Ala^34 survivin DN at an m.o.i. of 50. O'Connor et al., “A p34(cdc2) survival checkpoint in cancer” Cancer Cell 2:43-54 (2002). Twenty-four hours later, approximately 3×10^4 cells were treated with or without ionizing radiation, and suspended in 1.5 ml of DMEM plus 10% FBS and 0.35% bactoagar (BD) in 6-well culture plates containing 1.5 ml of 0.75% agarose in growth medium at the bottom layer. Plates were incubated at 37° C. in 5% CO2 for 2 weeks. Colonies were stained with 0.005% crystal violet (Sigma-Aldrich), and counted using a dissecting microscope under high-power field.

Sequence of Chk2 (O96017 whole entry): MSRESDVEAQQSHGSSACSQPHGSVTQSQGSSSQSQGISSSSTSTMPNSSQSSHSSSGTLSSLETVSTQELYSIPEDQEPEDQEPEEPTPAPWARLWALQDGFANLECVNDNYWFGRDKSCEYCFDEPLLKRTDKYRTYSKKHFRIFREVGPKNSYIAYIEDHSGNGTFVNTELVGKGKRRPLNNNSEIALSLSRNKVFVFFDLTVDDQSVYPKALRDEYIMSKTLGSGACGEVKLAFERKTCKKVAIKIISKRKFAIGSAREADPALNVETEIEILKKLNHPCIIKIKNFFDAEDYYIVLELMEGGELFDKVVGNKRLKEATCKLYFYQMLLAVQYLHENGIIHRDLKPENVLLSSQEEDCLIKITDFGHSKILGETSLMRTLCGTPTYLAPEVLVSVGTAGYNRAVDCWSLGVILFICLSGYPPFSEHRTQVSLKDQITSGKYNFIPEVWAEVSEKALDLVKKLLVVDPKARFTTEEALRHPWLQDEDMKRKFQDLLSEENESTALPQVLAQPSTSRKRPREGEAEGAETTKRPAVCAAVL

CN[C@@H]1C[C@H]2O[C@@](C)([C@@H]1OC)n1c3ccccc3c3c4c(c5c6ccccc6n2c5c31)C(=O)NC4O (stereo partly drawn) [UCN-01]
confirmation of Chk2 potency [1]: could not be confirmed

COc1cccc2c1C(=O)c1c(O)c3c(c(O)c1C2=O)C[C@@](O)(C(=O)CO)C[C@@H]3O[C@H]1C[C@H](N)[C@H](O)[C@H](C)O1 [adriamycin]
survivin expression [2]: concentration-dependent increase in survivin | effect on tumor growth ([3]; adriamycin-resistant clone #202, SCID/beige mice): no effect | inhibition of tumor growth ([3]; adriamycin-sensitive clone #102, SCID/beige mice, adriamycin 2 mg/kg): 50-60%

Chk2-DN: kinase-dead Asp347 to Asn347 Chk2 dominant-negative mutant, expressed by transfection, adenovirus or tet-on system
ionizing radiation-induced survivin expression [4]: abolished the increase in survivin expression | induction of caspase activity and cell death [5]: comparable induction of caspase activity and cell death | induction of apoptosis [6]: 2- to 4 fold | colony formation in soft agar [7]: nearly completely abolished

Thr^34→Ala^34 survivin-DN: dominant-negative survivin mutant delivered by replication deficient adenovirus
colony formation in soft agar [7]: nearly completely abolished
